System: green peach aphid (Myzus persicae)
Experiment: Myzus persicae - spray test on cabbage leaves
Format: in vivo
Conditions: mortality, 1600 ppm, spray on infested cabbage leaves
Procedure: The expected efficacy of a given combination of two compounds is calculated as follows (see Colby, S.R., “Calculating Synergistic and antagonistic Responses of Herbicide Combinations”, Weeds 15, pp. 20-22, 1967):
If • X is the efficacy expressed in % mortality of the untreated control for test compound A at a concentration of m ppm or m g/ha, • Y is the efficacy expressed in % mortality of the untreated control for test compound B at a concentration of n ppm or n g/ha, • E is the efficacy expressed in % mortality of the untreated control using the mixture of A and B at m and n ppm respectively m and n g/ha, • then is
If the observed insecticidal efficacy of the combination is higher than the one calculated as “E”, then the combination of the two compounds is more than additive, i.e., there is a synergistic effect.
Myzus persicae—Spray Test
• Solvent: 7 parts by weight of dimethylformamide • Emulsifier: alkylaryl polyglycol ether
To produce a suitable preparation of active compound, 1 part by weight of active compound is mixed with the stated amount of solvent and is diluted with water, containing an emulsifier concentration of 1000 ppm, to the desired concentration. […]
After the specified period of time mortality in % is determined. […] The mortality values determined thus are recalculated using the Colby-formula (see sheet 1).

C=C(C)[C@H]1CC=C(C)CC1 [(R)-(+)-limonene 97%, (R)-(+)-limonene]
Efficacy in % after 6 days: 0%

— patent US12342823B2, “Active compound combinations having insecticidal/acaricidal properties” (Bayer Aktiengesellschaft, priority 2018, dated 2025)
